{"source": "patent US7985768B2", "about": "“Compounds as cannabinoid receptor ligands” (priority 2006, dated 2011)", "origin": "cited, not measured here", "key": {"rat": {"system": "rat", "settings": "rat formalin model of persistent pain"}, "animal models of pain": {"system": "animal models of pain", "settings": "models of acute thermal, persistent, inflammatory and neuropathic pain"}, "[1]": {"settings": "at fully efficacious doses"}, "[2]": {"system": "apolipoprotein E knockout mice"}, "microglial activation": {"system": "microglial activation", "settings": "in vitro"}, "mice": {"system": "mice", "settings": "model for post-menopausal osteoporosis"}, "rodent models of pain": {"system": "rodent models of pain", "settings": "neuropathic, incisional, chronic and acute inflammatory pain"}, "[3]": {"system": "CB2 receptor knockout mice"}, "[4]": {"system": "CB1 receptor knockout mice"}}, "data": [{"compound": "CCCCCCC(C)(C)c1cc(OC)c([C@@H]2C=C(CO)[C@@H]3C[C@H]2C3(C)C)c(OC)c1", "note": "[HU-308]", "values": [{"measurement": "antinociceptive response", "setting": "rat", "result": "elicits an antinociceptive response"}]}, {"compound": "CN1CCCCC1Cn1cc(C(=O)c2cc([N+](=O)[O-])ccc2I)c2ccccc21", "note": "(stereo not shown) [AM-1241]", "values": [{"measurement": "analgesic efficacy", "setting": "animal models of pain", "result": "robust analgesic efficacy"}, {"measurement": "CB1 receptor-mediated CNS side effects", "setting": "[1]", "result": "devoid of typical CB1 receptor-mediated CNS side effects"}]}, {"compound": "SR144528", "values": [{"measurement": "effect on the actions of THC on atherosclerotic lesions", "setting": "[2]; antagonist against THC", "result": "inhibited"}, {"measurement": "effect on the actions of JWH-133", "setting": "microglial activation; antagonist against JWH-133", "result": "blocked"}, {"measurement": "effect on ovariectomy-induced bone loss", "setting": "mice", "result": "reverse ovariectomy-induced bone loss"}, {"measurement": "effect on osteoclast activity", "setting": "osteoclast", "result": "inhibit osteoclast activity"}]}, {"compound": "COc1ccc2c(c1)c(CCN1CCOCC1)c(C)n2C(=O)c1cccc(Cl)c1Cl", "note": "[GW405833]", "values": [{"measurement": "efficacy in pain models", "setting": "rodent models of pain", "result": "efficacious"}, {"measurement": "CB1 receptor-mediated CNS side effects", "setting": "[1]", "result": "devoid of typical CB1 receptor-mediated CNS side effects"}]}, {"compound": "CCCC(C)(C)c1ccc2c(c1)OC(C)(C)[C@@H]1CC=C(C)C[C@@H]21", "note": "[JWH-133]", "values": [{"measurement": "effect on β-amyloid-induced microglial activation and neurotoxicity", "setting": "microglial activation", "result": "abrogated"}]}, {"compound": "(−)-Δ^9-Tetrahydrocannabinol [Δ^9-THC]", "values": [{"measurement": "effect on progression of atherosclerotic lesions", "setting": "[2]; low doses", "result": "slowed the progression of atherosclerotic lesions"}, {"measurement": "immunosuppressive effects", "setting": "[3]", "result": "absent"}, {"measurement": "analgesic efficacy", "setting": "[4]", "result": "retains some analgesic efficacy"}]}]}
